What was measured:
[1] = mn = molality of the nth substance listed, in mol/kg; conditions: 298.15 K, 101 kPa, Liquid; for speed of sound: Linear variable-path acoustic interferometer
[2] = 298.15 K, 101 kPa, Liquid; for speed of sound: Linear variable-path acoustic interferometer

CC#N [acetonitrile] + O
[1]
Conditions	mass density [kg/m3]	speed of sound [m/s]
m2 = 0	776.389	1281.3
m2 = 0.1197	776.819	1281.5
m2 = 0.1729	777.019	1282
m2 = 0.2244	777.174	1282.2
m2 = 0.2674	777.435	1282.4
m2 = 0.3192	777.518	1282.2
m2 = 0.4188	777.923	1282.6
m2 = 0.5198	778.218	1283
m2 = 0.621	778.584	1284
m2 = 0.7217	778.921	1284.3
m2 = 0.8212	779.276	1284.7
m2 = 0.9205	779.631	1285.5
m2 = 1.02	779.949	1286.5

CCCCO [butan-1-ol] + O
[1]
Conditions	mass density [kg/m3]	speed of sound [m/s]
m2 = 0	806.024	1241.6
m2 = 0.1588	806.701	1242.9
m2 = 0.2034	806.906	1243.3
m2 = 0.2526	807.034	1243.2
m2 = 0.3019	807.215	1243.6
m2 = 0.3998	807.558	1244.5
m2 = 0.5007	807.906	1246.2
m2 = 0.6011	808.262	1247
m2 = 0.705	808.615	1248
m2 = 0.8032	808.946	1248.8
m2 = 0.9017	809.283	1249.7

CCO [ethanol] + O
[1]
Conditions	mass density [kg/m3]	speed of sound [m/s]
m2 = 0	785.207	1142.1
m2 = 0.214	786.407	1144.6
m2 = 0.2705	786.72	1145.9
m2 = 0.3199	786.998	1146.8
m2 = 0.3659	787.262	1148.6
m2 = 0.4543	787.753	1151
m2 = 0.5541	788.3	1153.2
m2 = 0.6437	788.782	1154.8
m2 = 0.743	789.321	1156.4
m2 = 0.8349	789.775	1157.7
m2 = 0.9264	790.279	1159.5
m2 = 1.019	790.734	1160.1

CO [methanol] + O
[1]
Conditions	mass density [kg/m3]	speed of sound [m/s]
m2 = 0	786.66	1103.8
m2 = 0.1566	787.454	1106
m2 = 0.2143	787.724	1106.2
m2 = 0.2641	788.016	1106.2
m2 = 0.3211	788.308	1107.2
m2 = 0.4121	788.789	1107.9
m2 = 0.5085	789.27	1109.8
m2 = 0.6159	789.834	1112.6
m2 = 0.7089	790.308	1113.4
m2 = 0.8074	790.823	1114.4
m2 = 0.9136	791.368	1117.1
m2 = 1.018	791.86	1118

CCO [ethanol]
[2]
Conditions	mass density [kg/m3]	speed of sound [m/s]
–	785.207	1142.1

CC#N [acetonitrile]
[2]
Conditions	mass density [kg/m3]	speed of sound [m/s]
–	776.389	1281.3

CO [methanol]
[2]
Conditions	mass density [kg/m3]	speed of sound [m/s]
–	786.66	1103.8

C1CCOC1 [tetrahydrofuran] + O
[1]
Conditions	mass density [kg/m3]	speed of sound [m/s]
m2 = 0	882.056	1280.2
m2 = 0.1301	882.394	1281.2
m2 = 0.1845	882.536	1281.7
m2 = 0.2263	882.674	1282
m2 = 0.244	882.753	1282.4
m2 = 0.3258	882.981	1282.9
m2 = 0.4247	883.242	1283.2
m2 = 0.525	883.543	1283.9
m2 = 0.6245	884.032	1284.6
m2 = 0.7309	884.381	1285.1
m2 = 0.8254	884.726	1286
m2 = 0.9243	885.015	1287
m2 = 1.029	885.427	1288

CN(C)C=O [dimethylformamide] + O
[1]
Conditions	mass density [kg/m3]	speed of sound [m/s]
m2 = 0	944.076	1460.2
m2 = 0.08457	944.384	1461.1
m2 = 0.1304	944.54	1461.8
m2 = 0.1738	944.701	1462.4
m2 = 0.2315	944.826	1463.9
m2 = 0.2762	945.027	1464.1
m2 = 0.3215	945.143	1464.2
m2 = 0.4146	945.584	1465.5
m2 = 0.5189	945.835	1467.4
m2 = 0.6115	946.263	1468.1
m2 = 0.7123	946.49	1469.4
m2 = 0.81	946.853	1470.7
m2 = 0.9044	947.103	1472.3
m2 = 1.001	947.417	1473.3

CCCO [propan-1-ol]
[2]
Conditions	mass density [kg/m3]	speed of sound [m/s]
–	799.683	1207

C1CCOC1 [tetrahydrofuran]
[2]
Conditions	mass density [kg/m3]	speed of sound [m/s]
–	882.056	1280.2

C1COCCO1 [1,4-dioxane] + O
[1]
Conditions	mass density [kg/m3]	speed of sound [m/s]
m2 = 0	1028.34	1346.3
m2 = 0.07165	1028.35	1347.1
m2 = 0.1214	1028.36	1347.8
m2 = 0.1625	1028.37	1348.4
m2 = 0.2272	1028.39	1349.2
m2 = 0.3262	1028.42	1350
m2 = 0.4214	1028.46	1350.9
m2 = 0.6512	1028.57	1353
m2 = 0.8375	1028.67	1354.8
m2 = 1.022	1028.78	1356.5

CCCCO [butan-1-ol]
[2]
Conditions	mass density [kg/m3]	speed of sound [m/s]
–	806.024	1241.6

C1COCCO1 [1,4-dioxane]
[2]
Conditions	mass density [kg/m3]	speed of sound [m/s]
–	1028.34	1346.3

CN(C)C=O [dimethylformamide]
[2]
Conditions	mass density [kg/m3]	speed of sound [m/s]
–	944.076	1460.2

CCCO [propan-1-ol] + O
[1]
Conditions	mass density [kg/m3]	speed of sound [m/s]
m2 = 0	799.683	1207
m2 = 0.1627	800.472	1209
m2 = 0.217	800.732	1209.9
m2 = 0.2635	800.961	1210.1
m2 = 0.3129	801.185	1211.5
m2 = 0.4209	801.664	1213
m2 = 0.5137	802.083	1213.4
m2 = 0.6196	802.528	1214.7
m2 = 0.7183	802.982	1215.8
m2 = 0.8205	803.412	1217.2
m2 = 0.9191	803.833	1218.1
m2 = 1.005	804.252	1219.3

Reference: the NIST ThermoML archive (doi:10.1021/je0601098)
